Experimental findings from PubChem BioAssay (NCI) are described below.

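Exposure lasted 48 hours, with cells grown in 96-well plates and compounds tested at five concentrations. The concentration for full growth arrest is given as TGI.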

The test system of one experiment is SF-268 CNS. Nature of the experiment: NCI tumour cell line growth inhibition, 48 h.
Turning to `CN(C)c1ccc(C(=N/N=C2\C(=O)Nc3ccccc32)c2ccc(N(C)C)cc2)cc1`, the TGI is 29.2 µM.

On to `Cc1ccc(C(=C2Sc3ccccc3S2)C(=C2Sc3ccccc3S2)c2ccc(C)s2)s1`, for which the TGI was above 100 µM.

`CSC(=S)N(C)C` showed a TGI above 100 µM.

For `O=C(CC(C(=O)c1ccsc1)c1ccc2c(c1)OCO2)c1ccccc1` (centres undefined), the TGI was above 100 µM.

Molecule `CC1(C)CCCC2OC2CCC(C)(C)C1=O` (centres undefined) had a TGI above 100 µM.

As for `NC1=NCC(CN2CCOCC2)O1` (centres undefined), the TGI is above 100 µM.

`CCC1(CC)C(=O)NN(C(=O)c2ccccc2)C1=O` registered a TGI above 100 µM.

For the molecule `COc1ccc(NC(=O)CC(=O)N2N=C(N3c4ccccc4Sc4ccccc43)CC2c2ccccc2)cc1` (centres undefined), the TGI was determined as 82.9 µM.

On to `CCOC(=O)C1=C(C)C2C=C(c3cccs3)CC(c3ccc(Cl)cc3)=C2OC1=O` (centres undefined), for which the TGI is above 100 µM.

A further experiment concerns HCT-15 colon. The experiment can be described thus: NCI tumour cell line growth inhibition, 48 h.
As for `COc1ccc2c(c1)/C(=C\c1c(Cl)nc3sc(C)cn13)C(=O)N2`, the TGI was determined as 22.4 µM.

`COc1cccc2c(=O)oc(-c3ccc(C(C)(C)C)cc3)nc12` gave a TGI above 100 µM.

As to `COc1ccc2c(c1)OCC1Cc3ccccc3OC21` (centres undefined), the TGI was above 100 µM.

`COC(=O)C1CCC(=O)N1C(c1ccc(OC)cc1)c1ccc2c(c1)OCO2` (centres undefined) registered a TGI above 100 µM.

For the molecule `CCN(CC)CCn1c(=O)c2cccnc2n2c3c(=O)n(C)c(=O)n(C)c3nc12`, the TGI amounted to 27.3 µM.

As for `CC1=NN(c2cccc(Cl)c2)C2(C1=C/C=C/c1ccccc1)C(Cl)C(=O)N2c1nc2ccccc2s1` (centres undefined), the TGI is above 82.1 µM.

As to `C=CCSc1nnc2cc(CN3CCCC3)c(-c3ccc(Cl)cc3)nn12`, the TGI was 45.1 µM.

`CCOC(=O)c1cn2c(nc1=O)N[C@H]1CCCC[C@@H]12` gave a TGI above 100 µM.

For the molecule `CN(C)c1ccc(C(=N/N=C2\C(=O)Nc3ccccc32)c2ccc(N(C)C)cc2)cc1`, the TGI came to 18.7 µM.

`Cc1ccc(C(=C2Sc3ccccc3S2)C(=C2Sc3ccccc3S2)c2ccc(C)s2)s1` gave a TGI above 100 µM.

`CSC(=S)N(C)C` gave a TGI above 100 µM.

Consider `O=C(CC(C(=O)c1ccsc1)c1ccc2c(c1)OCO2)c1ccccc1` (centres undefined), for which the TGI was above 100 µM.

As for `CC1(C)CCCC2OC2CCC(C)(C)C1=O` (centres undefined), the TGI is above 100 µM.

Turning to `NC1=NCC(CN2CCOCC2)O1` (centres undefined), the TGI was above 100 µM.

The molecule `CCC1(CC)C(=O)NN(C(=O)c2ccccc2)C1=O` had a TGI above 100 µM.

Regarding `COc1ccc(NC(=O)CC(=O)N2N=C(N3c4ccccc4Sc4ccccc43)CC2c2ccccc2)cc1` (centres undefined), the TGI was above 100 µM.

As to `CCOC(=O)C1=C(C)C2C=C(c3cccs3)CC(c3ccc(Cl)cc3)=C2OC1=O` (centres undefined), the TGI came to 56.5 µM.

In another experiment the test system is NCI/ADR-RES ovarian. The experiment can be described thus: NCI tumour cell line growth inhibition, 48 h.
Consider `COc1ccc2c(c1)/C(=C\c1c(Cl)nc3sc(C)cn13)C(=O)N2`, for which the TGI is 17.7 µM.

On to `COc1cccc2c(=O)oc(-c3ccc(C(C)(C)C)cc3)nc12`, for which the TGI is above 100 µM.

Take `COc1ccc2c(c1)OCC1Cc3ccccc3OC21` (centres undefined): the TGI is above 100 µM.

For the molecule `COC(=O)C1CCC(=O)N1C(c1ccc(OC)cc1)c1ccc2c(c1)OCO2` (centres undefined), the TGI is above 100 µM.

`CCN(CC)CCn1c(=O)c2cccnc2n2c3c(=O)n(C)c(=O)n(C)c3nc12`: the TGI is above 100 µM.

`CC1=NN(c2cccc(Cl)c2)C2(C1=C/C=C/c1ccccc1)C(Cl)C(=O)N2c1nc2ccccc2s1` (centres undefined) registered a TGI above 100 µM.

For the molecule `C=CCSc1nnc2cc(CN3CCCC3)c(-c3ccc(Cl)cc3)nn12`, the TGI was 56.3 µM.

For `CCOC(=O)c1cn2c(nc1=O)N[C@H]1CCCC[C@@H]12`, the TGI was above 100 µM.

On to `CN(C)c1ccc(C(=N/N=C2\C(=O)Nc3ccccc32)c2ccc(N(C)C)cc2)cc1`, for which the TGI turned out to be 3.59 µM.

Turning to `Cc1ccc(C(=C2Sc3ccccc3S2)C(=C2Sc3ccccc3S2)c2ccc(C)s2)s1`, the TGI is above 100 µM.

As for `CSC(=S)N(C)C`, the TGI is above 100 µM.

In the case of `O=C(CC(C(=O)c1ccsc1)c1ccc2c(c1)OCO2)c1ccccc1` (centres undefined), the TGI was above 100 µM.

Consider `CC1(C)CCCC2OC2CCC(C)(C)C1=O` (centres undefined), for which the TGI is above 100 µM.

`NC1=NCC(CN2CCOCC2)O1` (centres undefined) returned a TGI above 100 µM.

In turn, `CCC1(CC)C(=O)NN(C(=O)c2ccccc2)C1=O` returned a TGI above 100 µM.

The molecule `COc1ccc(NC(=O)CC(=O)N2N=C(N3c4ccccc4Sc4ccccc43)CC2c2ccccc2)cc1` (centres undefined) yielded a TGI above 100 µM.

Take `CCOC(=O)C1=C(C)C2C=C(c3cccs3)CC(c3ccc(Cl)cc3)=C2OC1=O` (centres undefined): the TGI was above 100 µM.

A further experiment relates to T-47D breast. Nature of the experiment: NCI tumour cell line growth inhibition, 48 h.
`COc1ccc2c(c1)/C(=C\c1c(Cl)nc3sc(C)cn13)C(=O)N2` registered a TGI of 14.6 µM.

`COc1cccc2c(=O)oc(-c3ccc(C(C)(C)C)cc3)nc12` had a TGI above 100 µM.

Take `COc1ccc2c(c1)OCC1Cc3ccccc3OC21` (centres undefined): the TGI is above 100 µM.

Regarding `COC(=O)C1CCC(=O)N1C(c1ccc(OC)cc1)c1ccc2c(c1)OCO2` (centres undefined), the TGI was above 100 µM.

`CCN(CC)CCn1c(=O)c2cccnc2n2c3c(=O)n(C)c(=O)n(C)c3nc12`: the TGI is above 100 µM.

Molecule `CC1=NN(c2cccc(Cl)c2)C2(C1=C/C=C/c1ccccc1)C(Cl)C(=O)N2c1nc2ccccc2s1` (centres undefined) displayed a TGI above 100 µM.

In the case of `C=CCSc1nnc2cc(CN3CCCC3)c(-c3ccc(Cl)cc3)nn12`, the TGI is 71.4 µM.

Take `CCOC(=O)c1cn2c(nc1=O)N[C@H]1CCCC[C@@H]12`: the TGI was above 100 µM.

`CN(C)c1ccc(C(=N/N=C2\C(=O)Nc3ccccc32)c2ccc(N(C)C)cc2)cc1` showed a TGI of 35.5 µM.

The molecule `Cc1ccc(C(=C2Sc3ccccc3S2)C(=C2Sc3ccccc3S2)c2ccc(C)s2)s1` came in with a TGI above 100 µM.

In the case of `CSC(=S)N(C)C`, the TGI was above 100 µM.

Turning to `O=C(CC(C(=O)c1ccsc1)c1ccc2c(c1)OCO2)c1ccccc1` (centres undefined), the TGI is above 100 µM.

The molecule `CC1(C)CCCC2OC2CCC(C)(C)C1=O` (centres undefined) displayed a TGI above 100 µM.

Take `NC1=NCC(CN2CCOCC2)O1` (centres undefined): the TGI is above 100 µM.

`CCC1(CC)C(=O)NN(C(=O)c2ccccc2)C1=O` came in with a TGI above 100 µM.

Turning to `COc1ccc(NC(=O)CC(=O)N2N=C(N3c4ccccc4Sc4ccccc43)CC2c2ccccc2)cc1` (centres undefined), the TGI was above 100 µM.

With `CCOC(=O)C1=C(C)C2C=C(c3cccs3)CC(c3ccc(Cl)cc3)=C2OC1=O` (centres undefined), the TGI came to 66.5 µM.

A further experiment relates to RPMI-8226 leukemia. The experiment can be described thus: NCI tumour cell line growth inhibition, 48 h.
As to `COc1ccc2c(c1)/C(=C\c1c(Cl)nc3sc(C)cn13)C(=O)N2`, the TGI is 13.8 µM.

In the case of `COc1cccc2c(=O)oc(-c3ccc(C(C)(C)C)cc3)nc12`, the TGI is above 100 µM.

In turn, `COc1ccc2c(c1)OCC1Cc3ccccc3OC21` (centres undefined) returned a TGI above 100 µM.

Molecule `COC(=O)C1CCC(=O)N1C(c1ccc(OC)cc1)c1ccc2c(c1)OCO2` (centres undefined) came in with a TGI above 100 µM.

`CCN(CC)CCn1c(=O)c2cccnc2n2c3c(=O)n(C)c(=O)n(C)c3nc12` had a TGI above 100 µM.

Molecule `CC1=NN(c2cccc(Cl)c2)C2(C1=C/C=C/c1ccccc1)C(Cl)C(=O)N2c1nc2ccccc2s1` (centres undefined) showed a TGI of 23.5 µM.

For `C=CCSc1nnc2cc(CN3CCCC3)c(-c3ccc(Cl)cc3)nn12`, the TGI was above 100 µM.

For `CCOC(=O)c1cn2c(nc1=O)N[C@H]1CCCC[C@@H]12`, the TGI is above 100 µM.

In turn, `CN(C)c1ccc(C(=N/N=C2\C(=O)Nc3ccccc32)c2ccc(N(C)C)cc2)cc1` came in with a TGI of 3.46 µM.

Regarding `Cc1ccc(C(=C2Sc3ccccc3S2)C(=C2Sc3ccccc3S2)c2ccc(C)s2)s1`, the TGI is above 100 µM.

Take `CSC(=S)N(C)C`: the TGI is above 100 µM.

As for `O=C(CC(C(=O)c1ccsc1)c1ccc2c(c1)OCO2)c1ccccc1` (centres undefined), the TGI was above 100 µM.

`CC1(C)CCCC2OC2CCC(C)(C)C1=O` (centres undefined) displayed a TGI above 100 µM.

The molecule `NC1=NCC(CN2CCOCC2)O1` (centres undefined) showed a TGI above 100 µM.

`CCC1(CC)C(=O)NN(C(=O)c2ccccc2)C1=O` registered a TGI above 100 µM.

`COc1ccc(NC(=O)CC(=O)N2N=C(N3c4ccccc4Sc4ccccc43)CC2c2ccccc2)cc1` (centres undefined) returned a TGI above 100 µM.

In turn, `CCOC(=O)C1=C(C)C2C=C(c3cccs3)CC(c3ccc(Cl)cc3)=C2OC1=O` (centres undefined) came in with a TGI of 38 µM.

The test system of the next experiment is MDA-MB-435. The experiment can be described thus: NCI tumour cell line growth inhibition, 48 h.
Molecule `COc1ccc2c(c1)/C(=C\c1c(Cl)nc3sc(C)cn13)C(=O)N2` gave a TGI of 1.43 µM.

`COc1cccc2c(=O)oc(-c3ccc(C(C)(C)C)cc3)nc12` registered a TGI above 100 µM.

Molecule `COc1ccc2c(c1)OCC1Cc3ccccc3OC21` (centres undefined) returned a TGI above 100 µM.

`COC(=O)C1CCC(=O)N1C(c1ccc(OC)cc1)c1ccc2c(c1)OCO2` (centres undefined) registered a TGI of 28.7 µM.

Take `CCN(CC)CCn1c(=O)c2cccnc2n2c3c(=O)n(C)c(=O)n(C)c3nc12`: the TGI is above 100 µM.

With `CC1=NN(c2cccc(Cl)c2)C2(C1=C/C=C/c1ccccc1)C(Cl)C(=O)N2c1nc2ccccc2s1` (centres undefined), the TGI is above 58.4 µM.

As for `C=CCSc1nnc2cc(CN3CCCC3)c(-c3ccc(Cl)cc3)nn12`, the TGI was determined as 41.7 µM.

Regarding `CCOC(=O)c1cn2c(nc1=O)N[C@H]1CCCC[C@@H]12`, the TGI is above 100 µM.

For `CN(C)c1ccc(C(=N/N=C2\C(=O)Nc3ccccc32)c2ccc(N(C)C)cc2)cc1`, the TGI was 0.0567 µM.

With `Cc1ccc(C(=C2Sc3ccccc3S2)C(=C2Sc3ccccc3S2)c2ccc(C)s2)s1`, the TGI was above 100 µM.

For `CSC(=S)N(C)C`, the TGI was above 100 µM.

`O=C(CC(C(=O)c1ccsc1)c1ccc2c(c1)OCO2)c1ccccc1` (centres undefined): the TGI was above 100 µM.

Turning to `CC1(C)CCCC2OC2CCC(C)(C)C1=O` (centres undefined), the TGI was above 100 µM.

Regarding `NC1=NCC(CN2CCOCC2)O1` (centres undefined), the TGI was above 100 µM.

With `CCC1(CC)C(=O)NN(C(=O)c2ccccc2)C1=O`, the TGI was above 100 µM.

Turning to `COc1ccc(NC(=O)CC(=O)N2N=C(N3c4ccccc4Sc4ccccc43)CC2c2ccccc2)cc1` (centres undefined), the TGI was above 100 µM.

For `CCOC(=O)C1=C(C)C2C=C(c3cccs3)CC(c3ccc(Cl)cc3)=C2OC1=O` (centres undefined), the TGI was above 100 µM.
